Assay results taken from PubChem BioAssay (NCI).
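Exposure lasted 48 hours, with cells grown in 96-well plates and compounds tested at five concentrations. TGI: concentration producing complete growth inhibition.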

How the values were obtained:
Test in all cases: NCI-60 cell line screen, 48 h
[1] = test system: NCI-H23 lung
[2] = test system: UACC-257 melanoma
[3] = test system: SNB-19 CNS
[4] = test system: SK-MEL-2 melanoma
[5] = test system: M14 melanoma
[6] = test system: NCI/ADR-RES ovarian
[7] = test system: HCT-15 colon
[8] = test system: HCT-116 colon
[9] = test system: SK-MEL-28 melanoma
[10] = test system: MCF7 breast
[11] = test system: CAKI-1 renal
[12] = test system: RXF 393 renal
[13] = test system: MALME-3M melanoma
[14] = test system: A549 NSCLC
[15] = test system: OVCAR-4 ovarian
[16] = test system: MDA-MB-231 breast
[17] = test system: OVCAR-8 ovarian
[18] = test system: 786-0 renal
[19] = test system: T-47D breast
[20] = test system: HCC-2998 colon
[21] = test system: IGROV1 ovarian
[22] = test system: UACC-62 melanoma
[23] = test system: SF-295 CNS
[24] = test system: HOP-92 NSCLC
[25] = test system: NCI-H226 lung
[26] = test system: KM12 colon
[27] = test system: LOX IMVI melanoma
[28] = test system: COLO 205 colon
[29] = test system: MDA-MB-435
[30] = test system: SF-539 CNS
[31] = test system: NCI-H460 lung
[32] = test system: MDA-N
[33] = test system: SNB-75 CNS
[34] = test system: U251 CNS
[35] = test system: SW-620 colon
[36] = test system: DU-145 prostate
[37] = test system: OVCAR-3 ovarian
[38] = test system: HS 578T breast
[39] = test system: RPMI-8226 leukemia
[40] = test system: MOLT-4 leukemia
[41] = test system: SR leukemia
[42] = test system: CCRF-CEM leukemia
[43] = test system: UO-31 renal
[44] = test system: EKVX NSCLC
[45] = test system: A498 renal
[46] = test system: K-562 leukemia
[47] = test system: BT-549 breast
[48] = test system: OVCAR-5 ovarian
[49] = test system: ACHN renal
[50] = test system: SK-OV-3 ovarian
[51] = test system: HT29 colon
[52] = test system: TK-10 renal
[53] = test system: NCI-H522 lung
[54] = test system: PC-3 prostate
[55] = test system: SK-MEL-5 melanoma
[56] = test system: SN12C renal
[57] = test system: SF-268 CNS
[58] = test system: HOP-62 NSCLC
[59] = test system: HL-60(TB) leukemia

With `O=C1c2ccccc2CCC1C(O)(C(F)(F)F)C(F)(F)F` (centres undefined) the TGI [1] was > 100 µM, the TGI [2] was > 100 µM and the TGI [3] was > 100 µM. For the same molecule, the TGI [4] was > 100 µM, the TGI [5] was > 100 µM and the TGI [6] was > 100 µM. For the same molecule, the TGI [7] was > 100 µM, the TGI [8] was > 100 µM and the TGI [9] was > 100 µM. The TGI [10] was > 100 µM, the TGI [11] was > 100 µM and the TGI [12] was > 100 µM. For the same molecule, the TGI [13] was > 100 µM, the TGI [14] was > 100 µM and the TGI [15] was > 100 µM. For the same molecule, the TGI [16] was > 100 µM, the TGI [17] was > 100 µM and the TGI [18] was > 100 µM. The TGI [19] was > 100 µM, the TGI [20] was > 100 µM and the TGI [21] was > 100 µM. The TGI [22] was > 100 µM, the TGI [23] was > 100 µM and the TGI [24] was > 100 µM. For the same molecule, the TGI [25] was > 100 µM, the TGI [26] was > 100 µM and the TGI [27] was > 100 µM. The TGI [28] was > 100 µM, the TGI [29] was > 100 µM and the TGI [30] was > 100 µM. For the same molecule, the TGI [31] was > 100 µM, the TGI [32] was > 100 µM and the TGI [33] was > 100 µM. The TGI [34] was > 100 µM, the TGI [35] was > 100 µM and the TGI [36] was > 100 µM. For the same molecule, the TGI [37] was > 100 µM, the TGI [38] was > 100 µM and the TGI [39] was > 100 µM. The TGI [40] was > 100 µM, the TGI [41] was > 100 µM and the TGI [42] was > 100 µM. For the same molecule, the TGI [43] was > 100 µM, the TGI [44] was > 100 µM and the TGI [45] was > 100 µM. For the same molecule, the TGI [46] was > 100 µM, the TGI [47] was > 100 µM and the TGI [48] was > 100 µM. For the same molecule, the TGI [49] was > 100 µM, the TGI [50] was > 100 µM and the TGI [51] was > 100 µM. The TGI [52] was > 100 µM, the TGI [53] was > 100 µM and the TGI [54] was > 100 µM. The TGI [55] was > 100 µM.
Molecule `COc1cc(OC)cc(C(=O)NC2=C(Cl)C(=O)c3ccccc3C2=O)c1` has a TGI [1] of 7.93 µM, a TGI [2] of 6.2 µM and a TGI [3] of 21.9 µM. For the same molecule, the TGI [4] was 4.01 µM, the TGI [5] was 6.67 µM and the TGI [6] was 11.9 µM. It also gave a TGI [7] of 10.4 µM, a TGI [8] of 2.35 µM and a TGI [9] of 19 µM. It also gave a TGI [10] of 8.73 µM, a TGI [11] of 17.7 µM and a TGI [12] of 4.09 µM. For the same molecule, the TGI [13] was 3.31 µM, the TGI [14] was > 38.3 µM and the TGI [15] was 6.01 µM. It also gave a TGI [16] of 29.2 µM, a TGI [17] of 17.6 µM and a TGI [19] of 3.51 µM. For the same molecule, the TGI [20] was 13.8 µM, the TGI [21] was 12.9 µM and the TGI [22] was 1.22 µM. It also gave a TGI [23] of 9.91 µM, a TGI [24] of 2.89 µM and a TGI [25] of 12 µM. It also gave a TGI [26] of 10.4 µM, a TGI [27] of 5.14 µM and a TGI [28] of 15.6 µM. The TGI [29] was 4.48 µM, the TGI [30] was 18.5 µM and the TGI [31] was 9.24 µM. For the same molecule, the TGI [32] was 5.13 µM, the TGI [33] was 12.3 µM and the TGI [34] was 9.42 µM. The TGI [35] was 2.65 µM, the TGI [36] was 16.8 µM and the TGI [37] was 5.54 µM. The TGI [38] was 24.4 µM, the TGI [56] was 13.1 µM and the TGI [39] was > 21.7 µM. The TGI [40] was 6.12 µM, the TGI [41] was > 23.1 µM and the TGI [57] was 12.8 µM. It also gave a TGI [58] of 27.8 µM, a TGI [42] of 3.99 µM and a TGI [43] of 9.42 µM. The TGI [44] was > 39.6 µM, the TGI [45] was 27.1 µM and the TGI [46] was 4.01 µM. It also gave a TGI [47] of 9.22 µM, a TGI [48] of 16.6 µM and a TGI [49] of 2.83 µM. It also gave a TGI [50] of 11.2 µM, a TGI [51] of 10.9 µM and a TGI [52] of 7.68 µM. It also gave a TGI [53] of 2.47 µM, a TGI [54] of 10.9 µM and a TGI [55] of 5.35 µM.
For `CCN(CC)CCN1C=CC(C)C(C(=O)O)C1C(N)=O` (centres undefined), the TGI [1] was > 100 µM, the TGI [2] was > 100 µM and the TGI [3] was > 100 µM. For the same molecule, the TGI [4] was > 100 µM, the TGI [5] was > 100 µM and the TGI [6] was > 100 µM. The TGI [7] was > 100 µM, the TGI [8] was > 100 µM and the TGI [9] was > 100 µM. The TGI [10] was > 100 µM, the TGI [11] was > 100 µM and the TGI [12] was > 100 µM. The TGI [14] was > 100 µM, the TGI [15] was > 100 µM and the TGI [16] was > 100 µM. The TGI [17] was > 100 µM, the TGI [18] was > 100 µM and the TGI [19] was > 100 µM. The TGI [59] was > 100 µM, the TGI [20] was > 100 µM and the TGI [21] was > 100 µM. The TGI [22] was > 100 µM, the TGI [23] was > 100 µM and the TGI [24] was > 100 µM. The TGI [25] was > 100 µM, the TGI [26] was > 100 µM and the TGI [27] was > 100 µM. The TGI [28] was > 100 µM, the TGI [29] was > 100 µM and the TGI [31] was > 100 µM. For the same molecule, the TGI [32] was > 100 µM, the TGI [33] was > 100 µM and the TGI [34] was > 100 µM. The TGI [35] was > 100 µM, the TGI [36] was > 100 µM and the TGI [37] was > 100 µM. For the same molecule, the TGI [38] was > 100 µM, the TGI [56] was > 100 µM and the TGI [39] was > 100 µM. The TGI [40] was > 100 µM, the TGI [41] was > 100 µM and the TGI [57] was > 100 µM. The TGI [58] was > 100 µM, the TGI [42] was > 100 µM and the TGI [43] was > 100 µM. The TGI [44] was > 100 µM, the TGI [45] was > 100 µM and the TGI [46] was > 100 µM. The TGI [47] was > 100 µM, the TGI [48] was > 100 µM and the TGI [49] was > 100 µM. For the same molecule, the TGI [50] was > 100 µM, the TGI [51] was > 100 µM and the TGI [52] was > 100 µM. The TGI [53] was > 100 µM, the TGI [54] was > 100 µM and the TGI [55] was > 100 µM.
